{
  "source": "ChEMBL document CHEMBL1201862",
  "about": "“PubChem BioAssay data set” (2004)",
  "assay_in_all_cases": "NCI-60 cell line screen, 48 h",
  "key": {"SW-620": {"test_system": "SW-620"}, "XF498": {"test_system": "XF498"}, "PC-3": {"test_system": "PC-3"}, "MDA-MB-231": {"test_system": "MDA-MB-231"}, "HCC 2998": {"test_system": "HCC 2998"}, "IGROV-1": {"test_system": "IGROV-1"}, "DLD-1": {"test_system": "DLD-1"}, "M14": {"test_system": "M14"}, "DMS-273": {"test_system": "DMS-273"}, "KM-20L2": {"test_system": "KM-20L2"}, "HOP-92": {"test_system": "HOP-92"}, "CAKI-1": {"test_system": "CAKI-1"}, "BT-549": {"test_system": "BT-549"}, "DMS-114": {"test_system": "DMS-114"}, "OVCAR-4": {"test_system": "OVCAR-4"}, "A498": {"test_system": "A498"}, "HCT-116": {"test_system": "HCT-116"}, "SR": {"test_system": "SR"}, "UO-31": {"test_system": "UO-31"}, "A549": {"test_system": "A549"}, "RXF 631": {"test_system": "RXF 631"}, "SNB-78": {"test_system": "SNB-78"}, "LOX IMVI": {"test_system": "LOX IMVI"}, "DU-145": {"test_system": "DU-145"}, "SK-MEL-5": {"test_system": "SK-MEL-5"}, "SNB-75": {"test_system": "SNB-75"}, "U-251": {"test_system": "U-251"}, "MOLT-4": {"test_system": "MOLT-4"}, "HCT-15": {"test_system": "HCT-15"}, "COLO 205": {"test_system": "COLO 205"}, "Hs-578T": {"test_system": "Hs-578T"}, "MDA-MB-435": {"test_system": "MDA-MB-435"}, "NCI-H522": {"test_system": "NCI-H522"}, "RPMI-8226": {"test_system": "RPMI-8226"}, "RXF 393": {"test_system": "RXF 393"}, "SK-MEL-28": {"test_system": "SK-MEL-28"}, "SF-268": {"test_system": "SF-268"}, "UACC-257": {"test_system": "UACC-257"}, "SK-MEL-2": {"test_system": "SK-MEL-2"}, "MDA-N": {"test_system": "MDA-N"}, "NCI-H460": {"test_system": "NCI-H460"}, "K562": {"test_system": "K562"}, "HL-60": {"test_system": "HL-60"}, "SK-OV-3": {"test_system": "SK-OV-3"}, "Malme-3M": {"test_system": "Malme-3M"}, "ACHN": {"test_system": "ACHN"}, "UACC-62": {"test_system": "UACC-62"}, "786-0": {"test_system": "786-0"}, "OVCAR-5": {"test_system": "OVCAR-5"}, "KM12": {"test_system": "KM12"}, "SF-295": {"test_system": "SF-295"}, "T47D": {"test_system": "T47D"}, "M19-MEL": {"test_system": "M19-MEL"}, "SF-539": {"test_system": "SF-539"}, "LXFL 529": {"test_system": "LXFL 529"}, "OVCAR-8": {"test_system": "OVCAR-8"}, "MCF7": {"test_system": "MCF7"}, "HOP-62": {"test_system": "HOP-62"}, "SN12C": {"test_system": "SN12C"}, "HT-29": {"test_system": "HT-29"}, "CCRF-CEM": {"test_system": "CCRF-CEM"}, "NCI/ADR-RES": {"test_system": "NCI/ADR-RES"}, "EKVX": {"test_system": "EKVX"}, "NCI-H23": {"test_system": "NCI-H23"}, "NCI-H226": {"test_system": "NCI-H226"}, "OVCAR-3": {"test_system": "OVCAR-3"}, "SNB-19": {"test_system": "SNB-19"}, "TK-10": {"test_system": "TK-10"}},
  "note": "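Assay format: 96-well plates, 48-hour exposure. The concentration for 50% growth inhibition is given as GI50.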 Active and inactive are the calls of the source. Rule as the data show it: active = GI50 up to about 1.1 µM and inactive = higher.",
  "data": [
    {"compound": "N#C/C(=C\\c1cc(O)c(O)c(O)c1)C(N)=O", "values": [
      {"measurement": "GI50", "setting": "SW-620", "result": "> 84.5 µM (inactive)"},
      {"measurement": "GI50", "setting": "XF498", "result": "> 100 µM (inactive)"},
      {"measurement": "GI50", "setting": "PC-3", "result": "> 22.2 µM (inactive)"},
      {"measurement": "GI50", "setting": "MDA-MB-231", "result": "> 66.5 µM (inactive)"},
      {"measurement": "GI50", "setting": "HCC 2998", "result": "> 100 µM (inactive)"},
      {"measurement": "GI50", "setting": "IGROV-1", "result": "> 100 µM (inactive)"},
      {"measurement": "GI50", "setting": "DLD-1", "result": "> 100 µM (inactive)"},
      {"measurement": "GI50", "setting": "M14", "result": "> 90.2 µM (inactive)"},
      {"measurement": "GI50", "setting": "DMS-273", "result": "> 100 µM (inactive)"},
      {"measurement": "GI50", "setting": "KM-20L2", "result": "74.1 µM (inactive)"},
      {"measurement": "GI50", "setting": "HOP-92", "result": "98.2 µM (inactive)"},
      {"measurement": "GI50", "setting": "CAKI-1", "result": "> 100 µM (inactive)"},
      {"measurement": "GI50", "setting": "BT-549", "result": "97.5 µM (inactive)"},
      {"measurement": "GI50", "setting": "DMS-114", "result": "> 100 µM (inactive)"},
      {"measurement": "GI50", "setting": "OVCAR-4", "result": "74.8 µM (inactive)"},
      {"measurement": "GI50", "setting": "A498", "result": "> 100 µM (inactive)"},
      {"measurement": "GI50", "setting": "HCT-116", "result": "> 70.1 µM (inactive)"},
      {"measurement": "GI50", "setting": "SR", "result": "> 47.5 µM (inactive)"},
      {"measurement": "GI50", "setting": "UO-31", "result": "> 74.1 µM (inactive)"},
      {"measurement": "GI50", "setting": "A549", "result": "> 100 µM (inactive)"},
      {"measurement": "GI50", "setting": "RXF 631", "result": "> 100 µM (inactive)"},
      {"measurement": "GI50", "setting": "SNB-78", "result": "> 100 µM (inactive)"},
      {"measurement": "GI50", "setting": "LOX IMVI", "result": "41.3 µM (inactive)"},
      {"measurement": "GI50", "setting": "DU-145", "result": "97.7 µM (inactive)"},
      {"measurement": "GI50", "setting": "SK-MEL-5", "result": "> 69.5 µM (inactive)"},
      {"measurement": "GI50", "setting": "SNB-75", "result": "63.7 µM (inactive)"},
      {"measurement": "GI50", "setting": "U-251", "result": "> 87.5 µM (inactive)"},
      {"measurement": "GI50", "setting": "MOLT-4", "result": "52.5 µM (inactive)"},
      {"measurement": "GI50", "setting": "HCT-15", "result": "> 74.5", "unit": "µM"},
      {"measurement": "GI50", "setting": "COLO 205", "result": "> 100 µM (inactive)"},
      {"measurement": "GI50", "setting": "Hs-578T", "result": "> 100 µM (inactive)"},
      {"measurement": "GI50", "setting": "MDA-MB-435", "result": "> 55.7 µM (inactive)"},
      {"measurement": "GI50", "setting": "NCI-H522", "result": "> 66.4 µM (inactive)"},
      {"measurement": "GI50", "setting": "RPMI-8226", "result": "> 100 µM (inactive)"},
      {"measurement": "GI50", "setting": "RXF 393", "result": "> 100 µM (inactive)"},
      {"measurement": "GI50", "setting": "SK-MEL-28", "result": "> 100 µM (inactive)"},
      {"measurement": "GI50", "setting": "SF-268", "result": "67.3 µM (inactive)"},
      {"measurement": "GI50", "setting": "UACC-257", "result": "> 100 µM (inactive)"},
      {"measurement": "GI50", "setting": "SK-MEL-2", "result": "> 100 µM (inactive)"},
      {"measurement": "GI50", "setting": "MDA-N", "result": "> 62.4 µM (inactive)"},
      {"measurement": "GI50", "setting": "NCI-H460", "result": "> 79.3 µM (inactive)"},
      {"measurement": "GI50", "setting": "K562", "result": "62.2 µM (inactive)"},
      {"measurement": "GI50", "setting": "HL-60", "result": "37.8 µM (inactive)"},
      {"measurement": "GI50", "setting": "SK-OV-3", "result": "> 100 µM (inactive)"},
      {"measurement": "GI50", "setting": "Malme-3M", "result": "> 100 µM (inactive)"},
      {"measurement": "GI50", "setting": "ACHN", "result": "> 93.8 µM (inactive)"},
      {"measurement": "GI50", "setting": "UACC-62", "result": "72.6 µM (inactive)"},
      {"measurement": "GI50", "setting": "786-0", "result": "54.6 µM (inactive)"},
      {"measurement": "GI50", "setting": "OVCAR-5", "result": "> 100 µM (inactive)"},
      {"measurement": "GI50", "setting": "KM12", "result": "> 90.4 µM (inactive)"},
      {"measurement": "GI50", "setting": "SF-295", "result": "> 100 µM (inactive)"},
      {"measurement": "GI50", "setting": "T47D", "result": "> 100 µM (inactive)"},
      {"measurement": "GI50", "setting": "M19-MEL", "result": "45.3 µM (inactive)"},
      {"measurement": "GI50", "setting": "SF-539", "result": "> 100 µM (inactive)"},
      {"measurement": "GI50", "setting": "LXFL 529", "result": "> 100 µM (inactive)"},
      {"measurement": "GI50", "setting": "OVCAR-8", "result": "> 100 µM (inactive)"},
      {"measurement": "GI50", "setting": "MCF7", "result": "> 39.4 µM (inactive)"},
      {"measurement": "GI50", "setting": "HOP-62", "result": "> 87.3 µM (inactive)"},
      {"measurement": "GI50", "setting": "SN12C", "result": "> 84.3 µM (inactive)"},
      {"measurement": "GI50", "setting": "HT-29", "result": "> 92.7 µM (inactive)"},
      {"measurement": "GI50", "setting": "CCRF-CEM", "result": "38.3 µM (inactive)"},
      {"measurement": "GI50", "setting": "NCI/ADR-RES", "result": "> 93.1 µM (inactive)"},
      {"measurement": "GI50", "setting": "EKVX", "result": "> 91 µM (inactive)"},
      {"measurement": "GI50", "setting": "NCI-H23", "result": "> 100 µM (inactive)"},
      {"measurement": "GI50", "setting": "NCI-H226", "result": "> 100 µM (inactive)"},
      {"measurement": "GI50", "setting": "OVCAR-3", "result": "> 72.8 µM (inactive)"},
      {"measurement": "GI50", "setting": "SNB-19", "result": "> 100 µM (inactive)"},
      {"measurement": "GI50", "setting": "TK-10", "result": "> 100 µM (inactive)"}
    ]}
  ]
}
